The source of these data is patent US8835631B2, “Therapeutic agent for cerebral infarction” (Mitsubishi Tanabe Pharma Corporation, priority 2007, dated 2014).

In data set [1] the target is T1, IL-1β receptor (Homo sapiens, UniProt P14778).
T1 sequence (P14778 18-569): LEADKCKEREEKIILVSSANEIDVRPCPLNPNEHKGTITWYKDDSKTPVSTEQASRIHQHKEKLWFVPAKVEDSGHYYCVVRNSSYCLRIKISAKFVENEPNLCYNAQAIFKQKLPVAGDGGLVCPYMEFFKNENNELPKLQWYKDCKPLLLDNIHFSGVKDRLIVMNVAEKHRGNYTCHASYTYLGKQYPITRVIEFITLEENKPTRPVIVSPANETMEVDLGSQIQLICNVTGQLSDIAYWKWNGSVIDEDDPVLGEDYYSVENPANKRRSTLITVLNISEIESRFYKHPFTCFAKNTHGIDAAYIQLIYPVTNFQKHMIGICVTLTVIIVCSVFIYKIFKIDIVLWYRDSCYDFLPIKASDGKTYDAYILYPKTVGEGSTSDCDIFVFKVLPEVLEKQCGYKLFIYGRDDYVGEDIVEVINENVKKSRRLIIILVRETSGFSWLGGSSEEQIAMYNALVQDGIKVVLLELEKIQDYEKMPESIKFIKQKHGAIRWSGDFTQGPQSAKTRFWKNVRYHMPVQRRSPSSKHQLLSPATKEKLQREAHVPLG
To be noted: clinical trial (Phase II); non-patent document 7; cited from earlier work.

Data set [2] has as its system IL-1β receptor. The settings on record: non-patent document 6; cited from earlier work.
The next data set deals with MCP-1. Kind of data set: MCP-1 production in LPS-administered mouse. The settings on record: for MCP-1 production in LPS model mouse (in words): 10 mg/kg orally 30 min before LPS; for MCP-1 production (%): 10 mg/kg orally 30 min before LPS 500 μg/kg i.p., plasma 90 min after LPS, ratio to group without test compound. The format is in vivo, male BALB/c mouse. The method, then:
(§1) LPS (lipopolysaccharide, derived from E. coli 0111:B4, Sigma, 500 μg/kg) was intraperitoneally administered to male BALB/c mouse (Charles River Laboratories Japan). After 90 min after LPS administration, the blood was taken under anesthesia, and centrifuged to collect plasma. TNF-α was measured using an Immunoassay Kit (R&D Systems) and IL-10, MCP-1 and IL-6 were measured using an Immunoassay Kit (BIOSOURCE). Test compound A, the compound synthesized in Example 3 (test compound B) and the compound synthesized in Example 7 (test compound C) were dissolved in saline, and the mixture was orally administered at 10 mg/kg 30 min before LPS administration. As shown in the Tables, the effect of each test compound on respective […] cytokines was calculated as the ratio of each cytokine concentration in the blood of the group administered with each test compound to each cytokine concentration in the blood of the group free of administration of each test compound.

Data set [3] is described as follows: Evaluation of bioavailability in rat. Format: in vivo, male SD(IGS) rats. The settings on record: plasma; for AUC0-last / AUC0-∞ / Cmax at 5 min / Cmax: Mean + SD; for Cmax at 5 min / bioavailability / Cmax: male, SD(IGS); for Cmax at 5 min: iv, read-out: Cmax (C5 min, plasma concentration at 5 min after administration); for bioavailability: oral, 3 mg/kg p.o. vs 3 mg/kg i.v., F = (AUC0-∞,p.o./AUC0-∞,i.v.,mean) × (Dosei.v./Dosep.o.) × 100; for Cmax: po, read-out: Cmax. The procedure:
Test compound A, test compound B and test compound C were each dissolved in 0.5% aqueous HPMC (hydroxypropyl methylcellulose) solution in the case of oral administration, or in saline in the case of intravenous administration, and they were orally or intravenously administered to male SD(IGS) rats (Charles River Laboratories Japan) by 3 mg/kg. The concentration of unchanged drug in the plasma of each rat was measured, and bioavailability (F(%)) was calculated (F (%)=(AUC0-∞,p.o./AUC0-∞,i.v.,mean)×(Dosei.v./Dosep.o.)×100). The test compound was administered by gavage using an oral gavage needle (p.o.), or administered in the tail vein (i.v.). The blood samples were collected at 15 and 30 min, 1, 2, 4, 6, 8 and 24 hr after administration in the case of oral administration, and 5 and 30 min, 1, 2, 4, 6, 8 and 24 hr after administration in the case of intravenous administration.
The results are shown in Tables 4 (test compound A), 5 (test compound B) and 6 (test compound C). The Cmax values for i.v. in Tables 4, 5 and 6 show plasma concentration at 5 min after administration.

Data set [4] in a line: Evaluation of intracerebral transitivity in rat. Format: in vivo, SD(IGS) rats. The settings on record: for Kp at 1 h / Kp at 4 h: SD(IGS), brain, po, 3 mg/kg orally, read-out: Kp value (ratio of plasma concentration and intracerebral concentration); for Kp at 1 h: 1 hr after administration; for Kp at 4 h: 4 hr after administration; for intracerebral transitivity (in words): orally, test compound A 30 mg/kg, test compounds B and C 3 mg/kg. The method, then: The test compound A dissolved in 0.5% aqueous HPMC solution was orally administered at 30 mg/kg, and test compound B and test compound C dissolved in 0.5% aqueous HPMC solution were each orally administered at 3 mg/kg to SD(IGS) rats (Charles River Laboratories Japan). At 1 hr and 4 hr after the administration of the test compound, blood samples were collected, and the brain (cerebral•cerebellum) was isolated. The plasma concentration and intracerebral concentration of each test compound were measured, and the ratio (Kp value) thereof was calculated, based on which the intracerebral transitivity was evaluated.

In the next data set the test system is IL-6. Kind of data set: IL-6 production in LPS-administered mouse. The settings on record: for IL-6 production in LPS model mouse (in words): 10 mg/kg orally 30 min before LPS; for IL-6 production (%): 10 mg/kg orally 30 min before LPS 500 μg/kg i.p., plasma 90 min after LPS, ratio to group without test compound. The format is in vivo, male BALB/c mouse. The method, then:
as §1

The subject of a further data set is IL-10. Kind of data set: IL-10 production in LPS-administered mouse. Format: in vivo, male BALB/c mouse. To be noted: for IL-10 in LPS model mouse (in words): 10 mg/kg orally 30 min before LPS; for IL-10 production (%): Table 1, 10 mg/kg orally 30 min before LPS 500 μg/kg i.p., plasma 90 min after LPS, ratio to group without test compound. The procedure:
as §1

The subject of data set [5] is rat middle cerebral artery occlusion-reperfusion model. Kind of data set: Cerebral infarction volume in rat middle cerebral artery occlusion-reperfusion model. Format: in vivo, male Wistar rats. To be noted: 10 mg/kg intravenously 30 min after occlusion, reperfusion 90 min after occlusion, brain isolated 24 hr later, TTC stain; FIG. 7. The method, then: The middle cerebral artery of male Wistar rats (Japan Laboratory Animals Inc.) was obstructed with suture (silicon-coated nylon thread), and saline (Vehicle, n=7), test compound A (10 mg/kg, n=6) dissolved in saline, test compound B ([…], n=7) dissolved in saline, and test compound C (10 mg/kg, n=7) dissolved in saline were each intravenously administered in 30 min after occlusion and the artery was reperfused in 90 min after occlusion. The brain was isolated 24 hr later. A 2 mm brain strip was prepared, and the strip was stained with PBS (pH 7.4, 37° C.) containing 1% 2,3,5-triphenyltetrazolium chloride (TTC, Wako Pure Chemical Industries, Ltd.). The cerebral infarction area was measured by image analysis and the cerebral infarction volume was calculated.

The test system of a further data set is TNF-α. Kind of data set: TNF-α production in LPS-administered mouse. The format is in vivo, male BALB/c mouse. The settings on record: for TNF-α production in LPS model mouse (in words): 10 mg/kg orally 30 min before LPS; for TNF-α production (%): Table 1, 10 mg/kg orally 30 min before LPS 500 μg/kg i.p., plasma 90 min after LPS, ratio to group without test compound. The method, then: as §1

Take “recombinant IL-1ra: an IL-1β receptor antagonist (recombinant IL-1ra)”: the values for the cerebral ischemic disorder entry in the data set with IL-1β receptor [1] and with IL-1β receptor [2] were “alleviating effect” and “alleviating action”, respectively.

By bioavailability is commonly meant dose-corrected exposure relative to a reference, in per cent. A low value points to poor availability. Take `CC(=O)NC1(c2ccc(CN3C[C@@H]4C[C@H]3CN4c3ncccn3)cc2)CC1` [test compound B, N-[1-(4-{[(1S,4S)-5-(pyrimidin-2-yl)-2,5-diazabicyclo[2.2.1]hept-2-yl]methyl}phenyl)cyclopropyl]acetamide]: the “MCP-1 production in LPS model mouse (in words)” value in the data set on MCP-1 is “suppressed”. Besides, the “MCP-1 production (%)” value with MCP-1 (Table 2) was found to be 63.9%. In addition, in [3] (3 mg/kg i.v.), the AUC0-last was 1449.8 ± 123.3 ngh/mL, the “AUC0-∞” value is on record as 1464.6 ± 122.3 ngh/mL and the Cmax at 5 min was 1600 ± 58.3 ng/mL. Also, in data set [3] (3 mg/kg p.o.), the AUC0-last turned out to be 1082.8 ± 171.1 ngh/mL, the “AUC0-∞” value is given as 1105.7 ± 170.8 ngh/mL and the Cmax was determined as 471 ng/mL. The bioavailability in data set [3] is 75.5%. Further, in [4], the Kp at 1 h is 0.8, the Kp at 4 h is 1.3 and the “intracerebral transitivity (in words)” value is “intracerebrally transferred”. Moreover, the “IL-6 production in LPS model mouse (in words)” value in the data set with IL-6 is listed as “suppressed”. For the same compound, the “IL-6 production (%)” value in the data set with IL-6 (Table 2) came out at 78.7%. Further, in the data set on IL-10, the “IL-10 in LPS model mouse (in words)” value is reported as “increased” and the “IL-10 production (%)” value is 350.1%. Further, the “suppression of cerebral infarction volume” value in [5] stood at 17.8%. In the data set with TNF-α, the “TNF-α production in LPS model mouse (in words)” value is “suppressed” and the “TNF-α production (%)” value was 53.9%.

With `CC(=O)NC1(c2ccc(CN3CCN(c4ncccn4)CC3)cn2)CC1` [test compound C, N-(1-{5-[{4-(pyrimidin-2-yl)piperazin-1-yl}methyl]pyridin-2-yl}cyclopropyl)acetamide], the “MCP-1 production in LPS model mouse (in words)” value with MCP-1 is recorded as “suppressed”. Also, the “MCP-1 production (%)” value with MCP-1 (Table 3) was found to be 72.1%. In addition, in data set [3] (3 mg/kg i.v.), the AUC0-last turned out to be 10173.6 ± 3012.9 ngh/mL, the “AUC0-∞” value came out at 10446.3 ± 2852.3 ngh/mL and the Cmax at 5 min was 4510 ± 359 ng/mL. Also, in data set [3] (3 mg/kg p.o.), the AUC0-last is on record as 8192.2 ± 3114.3 ngh/mL, the “AUC0-∞” value worked out at 8434.3 ± 2981.5 ngh/mL and the Cmax worked out at 2000 ng/mL. Moreover, in data set [3], the bioavailability came out at 80.7%. In addition, in data set [4], the Kp at 1 h amounted to 0.8, the Kp at 4 h was 0.9 and the “intracerebral transitivity (in words)” value is given as “intracerebrally transferred”. Further, the “IL-6 production in LPS model mouse (in words)” value with IL-6 is recorded as “suppressed”. In the data set with IL-6 (Table 3), the “IL-6 production (%)” value is listed as 81%. For the same compound, in the data set on IL-10, the “IL-10 in LPS model mouse (in words)” value was “increased” and the “IL-10 production (%)” value amounted to 401.4%. Besides, the “suppression of cerebral infarction volume” value in data set [5] amounted to 43.2%. For the same compound, in the data set with TNF-α, the “TNF-α production in LPS model mouse (in words)” value was “suppressed” and the “TNF-α production (%)” value worked out at 50.6%.
